Assay results reported in patent US7709521B2, “Substituted indole derivatives for pharmaceutical compositions for treating respiratory diseases” (AstraZeneca AB, priority 2003, dated 2010).

molecular target: T1, rhCRTh2 (Homo sapiens, UniProt Q9Y5Y4); experiment: Ligand binding assay ([3H]PGD2 displacement, SPA, HEK cell membranes); conditions: [3H]PGD2 binding to membranes of HEK cells expressing rhCRTh2/Gα16, SPA beads, room temperature, 2 hours
T1 construct: expressed in transfected cells; host or cells: HEK cells (membrane preparation)
T1 sequence (Q9Y5Y4 1-395): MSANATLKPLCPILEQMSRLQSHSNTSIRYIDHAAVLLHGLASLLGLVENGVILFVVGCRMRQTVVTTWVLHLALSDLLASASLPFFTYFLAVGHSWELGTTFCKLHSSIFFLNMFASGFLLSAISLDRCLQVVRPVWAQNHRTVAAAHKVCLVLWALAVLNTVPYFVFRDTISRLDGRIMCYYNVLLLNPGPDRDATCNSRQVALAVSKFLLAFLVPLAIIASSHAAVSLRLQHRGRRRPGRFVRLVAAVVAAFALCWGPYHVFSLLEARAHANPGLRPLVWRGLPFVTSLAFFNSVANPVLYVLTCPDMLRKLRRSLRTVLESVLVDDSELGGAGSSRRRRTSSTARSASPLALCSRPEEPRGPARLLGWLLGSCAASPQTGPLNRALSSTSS
Description: [^3H]PGD2 was purchased from Perkin Elmer Life Sciences with a specific activity of 100-210 Ci/mmol.
HEK cells expressing rhCRTh2/Gα16 were routinely maintained in DMEM containing 10% Foetal Bovine Serum (HyClone), 1 mg/ml geneticin, 2 mM L-glutamine and 1% non-essential amino acids. For the preparation of membranes, the adherent transfected HEK cells were grown to confluence in two layer tissue culture factories (Fisher, catalogue number TKT-170-070E). Maximal levels of receptor expression were induced by addition of 500 mM sodium butyrate for the last 18 hours of culture. The adherent cells were washed once with phosphate buffered saline (PBS, 50 ml per cell factory) and detached by the addition of 50 ml per cell factory of ice-cold membrane homogenisation buffer [20 mM HEPES (pH 7.4), 0.1 mM dithiothreitol, 1 mM EDTA, 0.1 mM phenyl methyl sulphonyl fluoride and 100 μg/ml bacitracin]. Cells were pelleted by centrifugation at 220×g for 10 minutes at 4° C., re-suspended in half the original volume of fresh membrane homogenisation buffer and disrupted using a Polytron homogeniser for 2×20 second bursts keeping the tube in ice at all times. […] The final pellet was re-suspended in 4 ml of membrane homogenisation buffer per cell factory used and the protein content determined. […]
All assays were performed in Corning clear bottomed, white 96-well NBS plates (Fisher). […] (The optimum coating concentrations were determined for each batch of membranes) The beads were pelleted by centrifugation (800×g for 7 minutes at 4° C.), washed once with assay buffer (50 mM HEPES pH 7.4 containing 5 mM magnesium chloride) and finally re-suspended in assay buffer at a bead concentration of 10 mg/ml.
Compounds and DK-PGD2 were dissolved in DMSO and diluted in the same solvent to 100× the required final concentration. […] The assay plate was incubated at room temperature for 2 hours and counted on a Wallac Microbeta liquid scintillation counter (1 minute per well).

Row | IC50 [nM] | SMILES
1 | 89.1 | Cc1c(Oc2ccc(Cl)cc2)c2cc(S(C)(=O)=O)ccc2n1CC(=O)O [Example 5, 3-(4-chlorophenoxy)-2-methyl-5-(methylsulfonyl)-1H-indole-1-acetic acid]
2 | 178 | Cc1c(Oc2ccc(C(=O)O)cc2)c2cc(F)ccc2n1CC(=O)O [Example 9, 3-(4-Carboxyphenoxy)-5-fluoro-2-methyl-1H-indole-1-acetic acid]

Row | SMILES | IC50 [nM]
3 | Cc1c(Oc2ccc(Cl)cc2)c2cc(C(F)(F)F)ccc2n1CC(=O)O [Example 6, 3-(4-chlorophenoxy)-2-methyl-5-(trifluoromethyl)-1H-indole-1-acetic acid] | 11.2

system: not given; experiment: not given; conditions: not given

Row | melting point | SMILES
4 | 204 to 207 °C | Cc1c(Oc2ccc(S(C)(=O)=O)cc2)c2cc(F)ccc2n1CC(=O)O [Example 2, 5-Fluoro-2-methyl-3-[4-(methylsulfonyl)phenoxy]-1H-indole-1-acetic acid]
5 | 217 to 218 °C | CNC(=O)c1ccc(Oc2c(C)n(CC(=O)O)c3ccc(F)cc23)cc1 [Example 10, 5-Fluoro-2-methyl-3-[4-[(methylamino)carbonyl]phenoxy]-1H-indole-1-acetic acid]
6 | 220 to 222 °C | CCNC(=O)c1ccc(Oc2c(C)n(CC(=O)O)c3ccc(F)cc23)cc1 [Example 11, 3-[4-[(Ethylamino)carbonyl]phenoxy]-5-fluoro-2-methyl-1H-indole-1-acetic acid]
7 | 218 to 219 °C | Cc1c(Oc2ccc(C(=O)NC(C)C)cc2)c2cc(F)ccc2n1CC(=O)O [Example 12, 5-Fluoro-2-methyl-3-[4-[[(1-methylethyl)amino]carbonyl]phenoxy]-1H-indole-1-acetic acid]
8 | 215 to 216 °C | Cc1c(Oc2ccc(C(=O)O)cc2)c2cc(Cl)ccc2n1CC(=O)O [Example 13, 3-(4-Carboxyphenoxy)-5-chloro-2-methyl-1H-indole-1-acetic acid]
9 | 195 to 196 °C | COC(=O)c1ccc(Oc2c(C)n(CC(=O)O)c3ccc(F)cc23)cc1 [Example 14, 5-Fluoro-3-[4-(methoxycarbonyl)phenoxy]-2-methyl-1H-indole-1-acetic acid]
10 | 196 to 197 °C | COC(=O)c1ccc(Oc2c(C)n(CC(=O)O)c3ccc(Cl)cc23)cc1 [Example 15, 5-Chloro-3-[4-(methoxycarbonyl)phenoxy]-2-methyl-1H-indole-1-acetic acid]
11 | 225 °C (dec.) | CNC(=O)c1ccc(Oc2c(C)n(CC(=O)O)c3ccc(Cl)cc23)cc1 [Example 16, 5-Chloro-2-methyl-3-[4-[(methylamino)carbonyl]phenoxy]-1H-indole-1-acetic acid]
12 | 220 °C (dec.) | CCNC(=O)c1ccc(Oc2c(C)n(CC(=O)O)c3ccc(Cl)cc23)cc1 [Example 17, 5-Chloro-3-[4-[(ethylamino)carbonyl]phenoxy]-2-methyl-1H-indole-1-acetic acid]
13 | < 275 °C | Cc1c(Oc2ccc(C(=O)NC(C)C)cc2)c2cc(Cl)ccc2n1CC(=O)[O-].[Na+] [Example 18, Sodium 5-Chloro-2-methyl-3-[4-[[(1-methylethyl)amino]carbonyl]phenoxy]-1H-indole-1-acetate]
